From US20070202079A1, “Therapeutic compositions and methods useful in modulating protein tyrosine phosphatases” (priority 2006, published 2007)

Key:
Baf3 cells = test: Baf3 cell proliferation assay; assay type: cell-based, murine
Protocol: The murine hematopoietic cell line Baf3 was maintained in RPMI 1640 medium supplemented with 10% fetal calf serum (FCS) and murine IL-3 (20 units/ml) as described previously in Damen et al., J. Biol. Chem. 270, 23402 (1995). Human myeloid cell line TF-1 was maintained in RPMI 1640 supplemented with 10% FCS and 40 ng/ml of recombinant human GM-CSF as described previously in Thomassen et al., Clin. Immunol. 95, 85 (2000). For cell proliferation assays, cells were washed in 10% FCS medium twice, resuspended in 10% FCS medium, incubated at 37° C. for 16 hours, and then cultured at 37° C. in 10% FCS medium containing various amounts of cytokines, sodium stibogluconate, or potassium antimonyl tartrate for 3-6 days as indicated. The cell numbers in proliferation assays were determined by an MTT assay or by microscopic cell counting as indicated.

DS cells = test: DS cell growth, MTT; assay type: cell-based, human; conditions: day 3; IFN-alpha 1,000 u/ml or sodium stibogluconate by itself
Protocol: For cell proliferation assays, cells were grown in 10% FCS culture medium containing various amounts of IFNs and/or sodium stibogluconate in 96 well plates and cultured at 37° C. for 3 or 6 days as indicated. The numbers of viable cells in proliferation assays were determined by MTT assays as described in Phatak et al., J. Immunol. 167, 3391 (2001).

[1] = test system: Stat1 tyrosine phosphorylation; test: IFN-alpha-induced Stat1 tyrosine phosphorylation, Western blotting; assay type: cell-based, human
Protocol: For induction of Stat1 tyrosine phosphorylation by IFN-alpha in the absence or presence of sodium stibogluconate, cells grown in 10% FCS RPMI 1640 medium at 37° C. were stimulated with IFN-alpha (50 u/ml) for various time points and treated with or without sodium stibogluconate for 5 minutes prior to termination by lysing the cells in cold lysis buffer (1% NP-40; 50 mM Tris, pH 7.4; 100 mM NaCl; 1 mM EDTA, 10% glycerol, 10 mM sodium molybdic acid and 4 mM AEBSF).
Cell lysates were prepared by lysing cells in cold lysis buffer for 30 min and cleared by centrifuging at 14,000 rpm at 4° C. for 15 min. For SDS-PAGE, cell lysates were mixed with equal volume of 2×SDS-PAGE sample buffer, heated at 90° C. for 5 min and separated in 10% SDS-PAGE gels. Cellular proteins in SDS-PAGE gels were transferred to nitrocellulose membrane (Schleicher & Schuell, Keene, N.H.), blocked in 5% milk, probed with antibodies and detected by using an enhanced chemiluminescence kit (ECL, Amersham, Arlington Heights, Ill.).

[2] = test system: human prostate carcinoma DU145 xenografts; test: DU145 xenografts in nude mice; assay type: in vivo; conditions: daily 440 mg/kg
Protocol: Nude mice bearing WM9 or DU145 xenografts were treated with IFN-alpha (500,000 U, s.c., daily), sodium stibogluconate (12 mg Sb, s.c., daily) or both. […] The dosage of sodium stibogluconate corresponds to approximately 440 mg Sb/kg body weight (average mouse body weight 27 g), substantially higher than the standard therapeutic dose of 20 mg Sb/kg and the high dose (143 mg Sb/kg) that was clinically used by accident without serious toxicity. This dose of sodium stibogluconate was based on a previous observation in a pilot study that mice could tolerate daily dose of 20 mg Sb (approximately 700-800 mg Sb/kg). […]
For each of the cell lines, each of 16 mice received subcutaneous injection at the chest area of 3×10^6 cells/site (WM9) or 2×10^6 cells/site (DU145), two sites/mouse, on day 0. […] Tumor size was measured with a caliper to determine the two perpendicular diameters of each tumor. Tumor volume was calculated using the method of the NCI (length×width 2 in millimeters/2=volume in cubic millimeters).
Athymic nude mice (nu/nu, NCR), 4 weeks old (Taconic), were inoculated (s.c.) in the flanks with DU145 cells (3×10^6 cells/site) on day 0. […] Tumor volume was measured and calculated using the formula for a prolate spheroid (V=4/3 7 a^2b) (Lindner, et al. 1997). […]

U251 = U251 cell growth, MTT; assay type: cell-based, human; conditions: 100 μg/ml, day 6
Protocol: NIH3T3 (Yi, et al., Blood 85, 87 (1995)), WM9 (Forsberg, et al., Proc. Nat. Acad Sci. USA 90, 393 (1993)), DU145 (Mickey, et al., Cancer Res. 37, 4049 (1977)), LoVo (Drewinko, et al., Cancer Res. 36, 467 (1976)), HEY (Buick, et al., Cancer Res. 45, 3668 (1985)), U251 (Yoshida, et al., Cancer 50, 410 (1982)), A549 (Giard, et al., J. Natl. Cancer Inst. 51, 1417 (1973)) and SK-N-SH (Helson, et al., Cancer Res. 35, 2594 (1975)) cell lines have been described and were cultured in RPMI 1640 supplemented with 10% fetal calf serum (FCS). For measurement of sodium stibogluconate effects on cell growth in vitro, cells were cultured in the absence (−) or presence (+) of various amounts of sodium stibogluconate for 6 days with viable cells quantified by MTT assays (Mosmann, J. Immunol. Methods 65, 55 (1983)). Percentages of growth inhibition by sodium stibogluconate were calculated (.+−.x%).

## O.O.O.O.O.O.O.O.O.O=C([O-])[C@@H]1[O][Sb]2([O-])([O][Sb]34([OH])[O][C@H]([C@H](O)CO)[C@H]([O]3)[C@H](C(=O)[O-])[O]4)[O][C@H]([C@H](O)CO)[C@@H]1[O]2.[Na+].[Na+].[Na+] [sodium stibogluconate]
Baf3 cells; 1,000 μg/ml
  effect on IL-3-induced Baf3 growth: suppressed IL-3-induced Baf3 growth
Baf3 cells; day 3 culture
  proliferation and viability in the absence of IL-3: failed to support cell proliferation or maintain cell viability
DS cells
  DS cell growth: modest activity
[1]; DR cells, 10 μg/ml, 30 min post-stimulation
  IFN-alpha-induced Stat1 tyrosine phosphorylation: approximately two folds greater than control
[1]; DR cells, absence of IFN-alpha
  Stat1 tyrosine phosphorylation by drug itself: failed to induce Stat1 tyrosine phosphorylation
[1]; DU145, 5 hours post-stimulation
  IFN-alpha-induced Stat1 tyrosine phosphorylation: Enhanced Stat1 tyrosine phosphorylation
[1]; WM9, 5 hours post-stimulation
  IFN-alpha-induced Stat1 tyrosine phosphorylation: Enhanced Stat1 tyrosine phosphorylation
[1]; WM35
  IFN-alpha-induced Stat1 tyrosine phosphorylation: failed to enhance
[1]; WiT49-N1
  IFN-alpha-induced Stat1 tyrosine phosphorylation: failed to enhance
[2]
  toxicity in DU145 tumor mice: no obvious toxicity
U251
  cell killing of U251: near-complete cell killing
